Calls of active or inactive are those of the source. The calls are words filed in the database; no cut-off is given here.
Key:
MCF7 [1] = assay: Antiproliferative activity against human MCF7 cells assessed as reduction in cell viability incubated for 48 hrs by MTT assay; type: functional, cell-based; settings: MCF7, 48 h
[2] = Cytotoxicity against human HEK293T cells assessed as reduction in cell viability incubated for 48 hrs by MTT assay; type: toxicity, cell-based, HEK-293T
NCI/ADR-RES [3] = assay: Antiproliferative activity against human multidrug resistant NCI-ADR-RES cells overexpressing P-gp assessed as reduction in cell viability incubated for 48 hrs by MTT assay; type: functional, cell-based
NCI/ADR-RES [4] = assay: Reversal fold, ratio of doxorubicin IC50 to doxorubicin IC50 in presence of 10 uM test compound for reversal of P-gp-mediated multidrug resistance in human NCI-ADR-RES cells incubated for 48 hrs by MTT assay; type: functional
HCT-8 [5] = assay: Antiproliferative activity against human Taxol resistant HCT-8 cells assessed as inhibition of cell growth at 50 uM incubated for 48 hrs by MTT assay; type: functional, cell-based
A549/TR = assay: Antiproliferative activity against human Taxol resistant A549 cells assessed as inhibition of cell growth at 50 uM incubated for 48 hrs by MTT assay; type: functional, cell-based
NCI/ADR-RES [6] = assay: Antiproliferative activity against human multidrug resistant NCI-ADR-RES cells assessed as inhibition of cell growth at 50 uM incubated for 48 hrs by MTT assay; type: functional, cell-based
MCF7 [7] = assay: Antiproliferative activity against human MCF7 cells assessed as inhibition of cell growth at 50 uM incubated for 48 hrs by MTT assay; type: functional, cell-based
A549 = assay: Antiproliferative activity against human A549 cells assessed as inhibition of cell growth at 50 uM incubated for 48 hrs by MTT assay; type: functional, cell-based
HCT-8 [8] = assay: Antiproliferative activity against human HCT-8 cells assessed as inhibition of cell growth at 50 uM incubated for 48 hrs by MTT assay; type: functional, cell-based
NCI/ADR-RES [9] = assay: Reversal of P-gp-mediated multidrug resistance in human NCI-ADR-RES cells assessed as potentiation of doxorubicin-induced cytotoxicity incubated for 48 hrs by MTT assay; type: functional, cell-based

SMILES | IC50 (MCF7 [1]; read-out: IC50) | IC50 at 48 h [2] | IC50 (NCI/ADR-RES [3]) | Ratio IC50 (NCI/ADR-RES [4]) | other results
C=C1[C@H](OC(C)=O)[C@@H](OC(=O)C(C)(C)C)[C@@H](OC(C)=O)C(C)(C)/C=C/[C@H](C)[C@H](OC(=O)c2ccccc2)[C@@]2(O)C[C@@](C)(O)[C@H](OC(C)=O)[C@@H]2[C@H]1OCC(C)C | > 100 µM | 52.1 µM | > 100 µM | 47.77 | –
C=C1[C@H](OC(C)=O)[C@@H](OC(=O)c2cccc(C)c2)[C@@H](OC(C)=O)C(C)(C)/C=C/[C@H](C)[C@H](OC(=O)c2ccccc2)[C@@]2(O)C[C@@](C)(OC(C)=O)[C@H](OC(C)=O)[C@@H]2[C@H]1OCC(C)C | > 100 µM | 7.6 µM | > 100 µM | 30.48 | –
COc1ccc(CCN(C)CCCC(C#N)(c2ccc(OC)c(OC)c2)C(C)C)cc1OC (configuration not stated) | – | 32 µM | > 100 µM | – | Activity (HCT-8 [5]): inactive; Activity (A549/TR): inactive; Activity (NCI/ADR-RES [6]): inactive; IC50 (MCF7 [1]): 87.8 µM; Activity (MCF7 [7]): inactive; Activity (A549): inactive; Activity (HCT-8 [8]): inactive; EC50 (NCI/ADR-RES [9]): 0.322 µM
C=C1[C@H](OC(C)=O)[C@@H](OC(C)=O)[C@@H](OC(C)=O)C(C)(C)/C=C/[C@H](C)[C@H](OC(=O)c2ccccc2)[C@@]2(O)C[C@@](C)(OC(=O)c3ccncc3)[C@H](OC(C)=O)[C@@H]2[C@H]1OCC(C)C | > 100 µM | 19.5 µM | > 100 µM | 89.33 | –
C=C1[C@H](OCC(C)C)C2=C(C[C@@](C)(OC(C)=O)[C@@H]2OC(C)=O)[C@@H](OC(=O)c2ccccc2)[C@@H](C)/C=C/C(C)(C)[C@H](OC(C)=O)[C@H](OC(C)=O)[C@H]1OCC(C)C | > 100 µM | > 100 µM | > 100 µM | 15.81 | –
C=C1[C@H](OCC(C)C)[C@@H](OC(C)=O)[C@@H](OC(C)=O)C(C)(C)[C@@H]2O[C@H]2[C@H](C)[C@H](OC(=O)c2ccccc2)[C@@]2(O)C[C@@](C)(OC(C)=O)[C@H](OC(C)=O)[C@@H]2[C@H]1OCC(C)C | > 100 µM | 48.1 µM | > 100 µM | 52.31 | –
C=C1[C@H](OCC(C)C)[C@@H](OC(C)=O)[C@@H](OC(C)=O)C(C)(C)/C=C/[C@H](C)[C@H](OC(=O)c2ccccc2)[C@@]2(O)C[C@@](C)(OC(C)=O)[C@H](OC(C)=O)[C@@H]2[C@H]1OCC(C)C | > 100 µM | > 100 µM | > 100 µM | 10.64 | –
C=C1[C@H](OC(C)=O)[C@@H](OC(=O)C(C)(C)C)[C@@H](OC(C)=O)C(C)(C)/C=C/[C@H](C)[C@H](OC(=O)c2ccccc2)[C@@]2(O)C[C@@](C)(OC(C)=O)[C@H](OC(C)=O)[C@@H]2[C@H]1OCC(C)C | > 100 µM | 18.9 µM | > 100 µM | 33.78 | –
C=C1[C@H](OC(C)=O)[C@@H](OC(=O)C(C)(C)C)[C@@H](OC(C)=O)C(C)(C)/C=C/[C@H](C)[C@H]2O[C@]3(C)C[C@@]2(OC(=O)c2ccccc2)[C@H]([C@H]3OC(C)=O)[C@H]1OCC(C)C | > 100 µM | > 100 µM | > 100 µM | 21.3 | –
C=C1[C@H](OC(C)=O)[C@@H](OC(=O)c2cccc(C)c2)[C@@H](OC(C)=O)C(C)(C)/C=C/[C@H](C)[C@H](OC(=O)c2ccccc2)[C@@]2(O)C[C@@](C)(O)[C@H](OC(C)=O)[C@@H]2[C@H]1OCC(C)C | 23.4 µM | 4.11 µM | > 100 µM | 59.71 | –
C=C1[C@H](OC(C)=O)[C@@H](OC(C)=O)[C@@H](OC(C)=O)C(C)(C)/C=C/[C@H](C)[C@H](OC(=O)c2ccccc2)[C@@]2(O)C[C@@](C)(OC(=O)c3cccc(C)c3)[C@H](OC(C)=O)[C@@H]2[C@H]1OCC(C)C | > 100 µM | 7.22 µM | > 100 µM | 38.74 | –
C=C1[C@H](OC(C)=O)[C@@H](OC(C)=O)[C@@H](OC(C)=O)C(C)(C)/C=C/[C@H](C)[C@H](OC(=O)c2ccccc2)[C@@]2(O)C[C@@](C)(OC(C)=O)[C@H](OC(C)=O)[C@@H]2[C@H]1OCC(C)C | 74.3 µM | 26.1 µM | > 100 µM | 12.16 | –
C=C1[C@H](OC(C)=O)[C@@H](OC(C)=O)[C@@H](OC(C)=O)C(C)(C)/C=C/[C@H](C)[C@H]2O[C@]3(C)C[C@@]2(OC(=O)c2ccccc2)[C@H]([C@H]3OC(C)=O)[C@H]1OCC(C)C | > 100 µM | 13.5 µM | > 100 µM | 34.3 | –
C=C1[C@H](OC(C)=O)[C@@H](OC(=O)c2cccc(C)c2)[C@@H](OC(C)=O)C(C)(C)/C=C/[C@H](C)[C@H]2O[C@]3(C)C[C@@]2(OC(=O)c2ccccc2)[C@H]([C@H]3OC(C)=O)[C@H]1OCC(C)C | > 100 µM | > 100 µM | > 100 µM | 8.9 | –

Continued, in another order:

IC50 (MCF7 [1]; read-out: IC50) | SMILES | IC50 at 48 h [2] | IC50 (NCI/ADR-RES [3]) | Ratio IC50 (NCI/ADR-RES [4]) | other results
> 100 µM | C=C1[C@H](OC(C)=O)[C@@H](OC(C)=O)[C@@H](OC(C)=O)C(C)(C)/C=C/[C@H](C)[C@H](OC(=O)c2ccccc2)[C@@]2(O)C[C@@](C)(O)[C@H](OC(C)=O)[C@@H]2[C@H]1OCC(C)C | 39.3 µM | > 100 µM | 4.49 | –
> 100 µM | C=C1[C@H](OC(C)=O)[C@@H](OC(C)=O)[C@@H](O)C(C)(C)/C=C/[C@H](C)[C@H](OC(=O)c2ccccc2)[C@@]2(O)C[C@@](C)(O)[C@H](OC(C)=O)[C@@H]2[C@H]1OCC(C)C | > 100 µM | > 100 µM | – | –
69.9 µM | C=C1[C@H](O)[C@@H](OC(=O)C(C)(C)C)[C@@H](O)C(C)(C)/C=C/[C@H](C)[C@H](OC(=O)c2ccccc2)[C@@]2(O)C[C@@](C)(O)[C@H](OC(C)=O)[C@@H]2[C@H]1OCC(C)C | 31.7 µM | > 100 µM | 0.91 | –
> 100 µM | C=C1[C@H](O)[C@@H](O)[C@@H](O)C(C)(C)/C=C/[C@H](C)[C@H](OC(=O)c2ccccc2)[C@@]2(O)C[C@@](C)(O)[C@H](OC(C)=O)[C@@H]2[C@H]1OCC(C)C | > 100 µM | > 100 µM | – | –
63.8 µM | C=C1[C@H](O)[C@@H](OC(=O)c2cccc(C)c2)[C@@H](O)C(C)(C)/C=C/[C@H](C)[C@H](OC(=O)c2ccccc2)[C@@]2(O)C[C@@](C)(O)[C@H](OC(C)=O)[C@@H]2[C@H]1OCC(C)C | 31.3 µM | 75.2 µM | 7.66 | –
21.6 µM | C=C1[C@H](OC(=O)c2cccc(C)c2)[C@@H](O)[C@@H](O)C(C)(C)/C=C/[C@H](C)[C@H](OC(=O)c2ccccc2)[C@@]2(O)C[C@@](C)(O)[C@H](OC(C)=O)[C@@H]2[C@H]1OCC(C)C | 12 µM | 33.6 µM | 8.85 | –
> 100 µM | CC(=O)O[C@@H]1[C@@H]2[C@@H](OCC(C)C)C3(CO3)[C@H](O)[C@@H](O)[C@@H](O)C(C)(C)/C=C/[C@H](C)[C@H](OC(=O)c3ccccc3)[C@@]2(O)C[C@@]1(C)O (some centres not stated) | > 100 µM | > 100 µM | – | –

Source: ChEMBL document CHEMBL5247598 (Eur J Med Chem, 2022)
